Experimental findings from patent publication US10301280B2 (Plexxikon Inc., priority 2012, dated 2019) are described below.

One assay concerns the target c-kit kinase (Homo sapiens (Human), UniProt P10721). Nature of the assay: c-Kit biochemical assay (AlphaScreen). As to conditions: c-kit biochemical inhibitory activity. In outline:
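AlphaScreen of biotin-(E4Y)3 (100 nM) phosphorylation by c-kit (0.1 ng) in HEPES pH 7.2, Mg/Mn, 10 μM ATP, 5% DMSO, 1 h at room temperature; variant uses 100 μM ATP, 30 nM biotin-(E4Y)10, 1 ng enzyme. PY20 acceptor/streptavidin donor signal versus 8-point concentration gives IC50.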

In assay [1] the test system is BaF3-FL KIT D816V or BaF3-FL KIT V560G/D816V cell line. The assay can be described thus: Cell-based assays of c-Kit mutant kinase activity (cell growth, ATPlite). The note with it: at least one of the c-kit cell assays of Example 26. In short, it runs like this: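 BaF3 cells dependent on full-length human KIT (D816V or V560G/D816V) seeded at 1×10^4 cells/well in RPMI with 10% FBS. Eight-point 1:3 dilutions from 10 μM top final (0.2% DMSO), 3 days at 37° C., 5% CO2. ATPlite luminescence gave IC50.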

c-kit kinase, sequence (P10721 26-976): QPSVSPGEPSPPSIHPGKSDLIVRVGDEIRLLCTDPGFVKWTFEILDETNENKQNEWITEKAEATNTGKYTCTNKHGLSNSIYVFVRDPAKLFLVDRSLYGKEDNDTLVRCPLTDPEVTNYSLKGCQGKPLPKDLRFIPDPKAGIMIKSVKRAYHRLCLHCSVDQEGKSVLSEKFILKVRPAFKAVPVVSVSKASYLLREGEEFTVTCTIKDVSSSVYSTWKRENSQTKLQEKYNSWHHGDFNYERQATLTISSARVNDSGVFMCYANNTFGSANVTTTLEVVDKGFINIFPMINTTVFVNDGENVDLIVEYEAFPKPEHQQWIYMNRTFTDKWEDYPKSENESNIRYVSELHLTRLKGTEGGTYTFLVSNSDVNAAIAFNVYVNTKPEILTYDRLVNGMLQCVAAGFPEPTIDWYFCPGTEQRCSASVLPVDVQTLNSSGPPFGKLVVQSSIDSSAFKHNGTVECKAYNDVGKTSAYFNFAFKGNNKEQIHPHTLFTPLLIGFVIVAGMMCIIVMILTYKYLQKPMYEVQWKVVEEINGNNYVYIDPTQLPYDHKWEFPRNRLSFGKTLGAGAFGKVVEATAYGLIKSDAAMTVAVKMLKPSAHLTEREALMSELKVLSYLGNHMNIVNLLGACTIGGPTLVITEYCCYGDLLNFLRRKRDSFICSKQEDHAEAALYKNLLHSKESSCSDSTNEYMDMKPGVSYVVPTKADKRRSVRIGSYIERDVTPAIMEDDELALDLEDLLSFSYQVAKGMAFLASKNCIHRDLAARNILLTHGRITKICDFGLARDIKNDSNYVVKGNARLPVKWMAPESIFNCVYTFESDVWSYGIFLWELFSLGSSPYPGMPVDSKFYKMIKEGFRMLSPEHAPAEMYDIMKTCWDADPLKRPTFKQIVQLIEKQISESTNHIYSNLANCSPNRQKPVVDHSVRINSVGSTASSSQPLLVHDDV

In the case of `Cc1[nH]nc(C(=O)Nc2cnc3[nH]c(-c4ccc(N5CCOCC5)cc4)cc3c2)c1C` [P-2059, 4,5-dimethyl-N-[2-(4-morpholinophenyl)-1H-pyrrolo[2,3-b]pyridin-5-yl]-1H-pyrazole-3-carboxamide], the IC50 on c-kit kinase is 0.0001 to 1 µM; in assay [1], less than 10 µM.
As for `Cc1n[nH]c(C(=O)Nc2cnc3[nH]c(-c4c(C)noc4C)cc3c2)c1C` [P-2065, N-[2-(3,5-dimethylisoxazol-4-yl)-1H-pyrrolo[2,3-b]pyridin-5-yl]-3,4-dimethyl-1H-pyrazole-5-carboxamide], the half-inhibitory concentration (IC50) against c-kit kinase was 1 to 10 µM; in assay [1], less than 10 µM.
As for `Cc1n[nH]c(C(=O)Nc2cnc3[nH]c(C4=CCN(C(=O)CN5CCOCC5)CC4)cc3c2)c1C` [P-2073, 3,4-dimethyl-N-[2-[1-(2-morpholinoacetyl)-3,6-dihydro-2H-pyridin-4-yl]-1H-pyrrolo[2,3-b]pyridin-5-yl]-1H-pyrazole-5-carboxamide], the figures for the concentration for half-maximal inhibition (IC50) (against c-kit kinase; in assay [1]) were 1 to 10 µM and less than 10 µM, respectively.
On to `Cc1n[nH]c(C(=O)Nc2cnc3[nH]c(-c4ccccc4)cc3c2)c1C` [P-2007, 3,4-dimethyl-N-(2-phenyl-1H-pyrrolo[2,3-b]pyridin-5-yl)-1H-pyrazole-5-carboxamide], for which the IC50 on c-kit kinase is 0.0001 to 1 µM; in assay [1] it was less than 10 µM.
As for `Cc1n[nH]c(C(=O)Nc2cnc3[nH]c(C4=CCC(N)CC4)cc3c2)c1C` (stereo not drawn) [P-2080, N-[2-(4-aminocyclohexen-1-yl)-1H-pyrrolo[2,3-b]pyridin-5-yl]-3,4-dimethyl-1H-pyrazole-5-carboxamide], the IC50 was 1 to 10 µM against c-kit kinase and less than 10 µM in assay [1].
As to `Cc1n[nH]c(C(=O)Nc2cnc3[nH]c(-c4cccc(N5CCCC5)c4)cc3c2)c1C` [P-2079, 3,4-dimethyl-N-[2-(3-pyrrolidin-1-ylphenyl)-1H-pyrrolo[2,3-b]pyridin-5-yl]-1H-pyrazole-5-carboxamide], the IC50 against c-kit kinase is 1 to 10 µM; in assay [1], less than 10 µM.
For the molecule `Cc1n[nH]c(C(=O)Nc2cnc3[nH]c(-c4cccc(N5CCN(C(=O)C6CC6)CC5)c4)cc3c2)c1C` [P-2118, N-[2-[3-[4-(cyclopropanecarbonyl)piperazin-1-yl]phenyl]-1H-pyrrolo[2,3-b]pyridin-5-yl]-3,4-dimethyl-1H-pyrazole-5-carboxamide], the IC50 at c-kit kinase is 10 to 200 µM; in assay [1], less than 10 µM.
As for `Cc1n[nH]c(C(=O)Nc2cnc3[nH]c(-c4ccc(C#N)c(N5CCOCC5)c4)cc3c2)c1C` [P-2081, N-[2-(4-cyano-3-morpholino-phenyl)-1H-pyrrolo[2,3-b]pyridin-5-yl]-3,4-dimethyl-1H-pyrazole-5-carboxamide], the results for the IC50 (at c-kit kinase; in assay [1]) were 1 to 10 µM and less than 10 µM, respectively.
For the molecule `O=C(Nc1cnc2[nH]c(-c3ccccc3)cc2c1)c1[nH]ncc1Br` [P-2005, 4-bromo-N-(2-phenyl-1H-pyrrolo[2,3-b]pyridin-5-yl)-1H-pyrazole-5-carboxamide], the IC50 at c-kit kinase is 1 to 10 µM; in assay [1] it was less than 10 µM.
In the case of `CNC(=O)c1ccc(-c2cc3cc(NC(=O)c4[nH]nc(C)c4C)cnc3[nH]2)cc1` [P-2067, 3,4-dimethyl-N-[2-[4-(methylcarbamoyl)phenyl]-1H-pyrrolo[2,3-b]pyridin-5-yl]-1H-pyrazole-5-carboxamide], the figures for the IC50 (against c-kit kinase; in assay [1]) were 1 to 10 µM and less than 10 µM, respectively.
For the molecule `Cc1n[nH]c(C(=O)Nc2cnc3[nH]c(-n4cccn4)cc3c2)c1C` [P-2112, 3,4-dimethyl-N-(2-pyrazol-1-yl-1H-pyrrolo[2,3-b]pyridin-5-yl)-1H-pyrazole-5-carboxamide], the IC50 was 1 to 10 µM at c-kit kinase and less than 10 µM in assay [1].
`CC(=O)N1CC=C(c2cc3cc(NC(=O)c4[nH]nc(C)c4Cl)cnc3[nH]2)CC1` [P-2061, N-[2-(1-acetyl-3,6-dihydro-2H-pyridin-4-yl)-1H-pyrrolo[2,3-b]pyridin-5-yl]-4-chloro-3-methyl-1H-pyrazole-5-carboxamide]: the IC50 at c-kit kinase was 0.0001 to 1 µM; in assay [1], less than 10 µM.
As to `Cc1n[nH]c(C(=O)Nc2cnc3[nH]c(C4=CCN(C(=O)C(O)CO)CC4)cc3c2)c1C` (stereo not drawn) [P-2074, N-[2-[1-(2,3-dihydroxypropanoyl)-3,6-dihydro-2H-pyridin-4-yl]-1H-pyrrolo[2,3-b]pyridin-5-yl]-3,4-dimethyl-1H-pyrazole-5-carboxamide], the figures for the IC50 (on c-kit kinase; in assay [1]) were 0.0001 to 1 µM and less than 10 µM, respectively.
As to `Cc1n[nH]c(C(=O)Nc2cnc3[nH]c(C4=CCN(C(=O)N5CCOCC5)C4)cc3c2)c1Cl` [P-2062, 4-chloro-3-methyl-N-[2-[1-(morpholine-4-carbonyl)-2,5-dihydropyrrol-3-yl]-1H-pyrrolo[2,3-b]pyridin-5-yl]-1H-pyrazole-5-carboxamide], the half-inhibitory concentration (IC50) against c-kit kinase was 0.0001 to 1 µM; in assay [1], less than 10 µM.
Regarding `Cc1n[nH]c(C(=O)Nc2cnc3sc(-c4ccccc4)nc3c2)c1C` [P-2144, 3,4-dimethyl-N-(2-phenylthiazolo[5,4-b]pyridin-6-yl)-1H-pyrazole-5-carboxamide], the results for the concentration for half-maximal inhibition (IC50) (on c-kit kinase; in assay [1]) were 1 to 10 µM and less than 10 µM, respectively.
For the molecule `Cc1n[nH]c(C(=O)Nc2cnc3[nH]c(C4=CCN(C(=O)C5CC5)C4)cc3c2)c1Cl` [P-2060, 4-chloro-N-[2-[1-(cyclopropanecarbonyl)-2,5-dihydropyrrol-3-yl]-1H-pyrrolo[2,3-b]pyridin-5-yl]-3-methyl-1H-pyrazole-5-carboxamide], the IC50 against c-kit kinase is 0.0001 to 1 µM; in assay [1], less than 10 µM.
Regarding `Cc1[nH]nc(C(=O)Nc2cnc3[nH]c(-c4ccnc(N5CCN(C)CC5)c4)cc3c2)c1C` [P-2069, 4,5-dimethyl-N-[2-[2-(4-methylpiperazin-1-yl)-4-pyridyl]-1H-pyrrolo[2,3-b]pyridin-5-yl]-1H-pyrazole-3-carboxamide], the half-maximal inhibitory concentration (IC50) was 1 to 10 µM on c-kit kinase and less than 10 µM in assay [1].
Regarding `Cc1[nH]nc(C(=O)Nc2cnc3[nH]c(-c4cccc(N5CCOCC5)c4)cc3c2)c1C` [P-2070, 4,5-dimethyl-N-[2-(3-morpholinophenyl)-1H-pyrrolo[2,3-b]pyridin-5-yl]-1H-pyrazole-3-carboxamide], the IC50 was 1 to 10 µM against c-kit kinase and less than 10 µM in assay [1].
`Cc1cc(C(=O)Nc2cnc3[nH]c(-n4cccn4)cc3c2)[nH]n1` [P-2116, 3-methyl-N-(2-pyrazol-1-yl-1H-pyrrolo[2,3-b]pyridin-5-yl)-1H-pyrazole-5-carboxamide]: the half-maximal inhibitory concentration (IC50) on c-kit kinase is 10 to 200 µM; in assay [1], less than 10 µM.
Take `Cc1n[nH]c(C(=O)Nc2cnc3[nH]c(-c4ccc(C(=O)NC5CC5)cc4)cc3c2)c1C` [P-2148, N-[2-[4-(cyclopropylcarbamoyl)phenyl]-1H-pyrrolo[2,3-b]pyridin-5-yl]-3,4-dimethyl-1H-pyrazole-5-carboxamide]: the half-inhibitory concentration (IC50) was 0.0001 to 1 µM at c-kit kinase and less than 10 µM in assay [1].
For the molecule `Cc1n[nH]c(C(=O)Nc2cnc3[nH]c(-c4cccc(N(C)C)c4)cc3c2)c1C` [P-2064, N-[2-[3-(dimethylamino)phenyl]-1H-pyrrolo[2,3-b]pyridin-5-yl]-3,4-dimethyl-1H-pyrazole-5-carboxamide], the IC50 at c-kit kinase was 0.0001 to 1 µM; in assay [1] it was less than 10 µM.
